Starred links: 1 amine or outer side, 2 acyl side, 3 side chain; linkers in the order of their positions; H or OH if unused. Non-standard residues stand in square brackets, D forms with d. Residues, ends and D or L forms follow the SMILES beside them. X1 = O=C([C@H](Cc1cnc(I)[nH]1)N[*:1])[*:2]
Tests used:
[1] = Free fraction in plasma (equilibrium dialysis); assay type: in vitro ADME; settings: human EDTA plasma, pH 7.4 buffer, 37 °C
Description: Example 14 Free fraction in plasma
Free fraction in human plasma has been determined by equilibrium dialysis between human EDTA plasma (Bioreclamation) and 0.1 M NaH2PO4 buffer adjusted to pH 7.4. The experiment was performed in a 96 well dialysis plate (HTD96b, htdialysis). Plasma was frozen at -80 °C immediately after purchasing. Membranes (HTD 96a/b Dialysis Membrane Strips, MWCO 12-14 K, htdialysis) were soaked for one hour in pure PBS and kept in PBS/EtOH 80:20 (v/v) in a closed bottle at 5 °C until use.
Plasma was thawed in cold water and centrifuged 5 min at 3000 rpm before use to move potential clots. The plasma supernatant was transferred to a new tube. Test compounds were diluted to 0.2 mM in DMSO. Plasma was spiked 1:100 with test compound (final concentration 2 µM).
The dialysis plate was assembled with membranes according to the instructions whereupon 150 µL phosphate buffer was loaded to the lower side of the wells immediately after assembling and spiked plasma was loaded to the upper side of the wells. The plate was sealed with sealing tape and incubated at 37 °C with gently shaking in 5 hours.
After 5 hours incubation the plate was removed from the incubator. The sealing tape was carefully removed and 70 µL from the buffer wells ("lower" side) were transferred to 96 well plates for analysis.
Samples were analysed by LC-MS-MS on a Sciex API 4000 (Applied Biosystems). […]

human NK3 receptor [2] = target: T1, human NK3 receptor (Homo sapiens, UniProt P29371); assay: NK3 receptor binding assay (SPA-based competition binding with 125I-NKB); settings: read-out: Affinity (Ki/nM); as to Affinity (Ki/nM): competition with app 0.02 nM 125I-NKB
T1 construct: expressed in transfected cells; membranes prepared from them
T1 sequence (P29371 1-465): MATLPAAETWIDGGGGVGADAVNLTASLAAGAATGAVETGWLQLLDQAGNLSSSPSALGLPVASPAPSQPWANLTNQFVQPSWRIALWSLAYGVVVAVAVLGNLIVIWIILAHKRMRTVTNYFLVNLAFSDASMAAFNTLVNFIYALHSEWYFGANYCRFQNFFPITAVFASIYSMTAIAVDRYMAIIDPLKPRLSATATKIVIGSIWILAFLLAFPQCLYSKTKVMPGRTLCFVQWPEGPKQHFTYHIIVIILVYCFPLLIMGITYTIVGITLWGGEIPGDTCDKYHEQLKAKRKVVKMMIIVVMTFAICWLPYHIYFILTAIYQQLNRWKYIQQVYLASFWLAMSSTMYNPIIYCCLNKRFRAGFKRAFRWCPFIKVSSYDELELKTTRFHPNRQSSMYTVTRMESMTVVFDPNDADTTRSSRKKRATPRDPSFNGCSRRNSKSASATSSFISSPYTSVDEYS
Description: Example 12 NK3 receptor binding assay
(§1) Membranepreparation: BHK cells stably expressing the human NK3 receptor were seeded in harvesting plates in Dulbeccos MEM containing GlutaMax (862 mg/l), 1mM sodium pyruvate, 10% fetal calf serum, 1% Pen/Strep, 1 mg/ml G418 and were grown at 34 °C in a humidified atmosphere containing 10% CO2. To increase receptor expression, 10 µM trichotatin A was added to the media 24 hours before harvest of the cells at a confluency of app 90%. Prior to the harvesting, the cells were washed twice with PBS without Mg^2+ og Ca^2+ and subsequently scrapped of in 10 ml PBS pr harvesting plate. The cells suspension were centrifuged at 1500xG in three minutes before resuspension in 15 mM Tris-HCl pH 7,5 buffer containing 2 mM MgCl2; 0,3 mM EDTA and 1 mM EGTA (buffer A). The cell suspention was homogenised and subsequently centrifuged at 40000xG in 30 minutes. The membrane-pellet was resuspended in buffer A containing 250 mM sucrose, alliquoted and stored at ― 80 °C.
Affinity assay description: The assay was performed as a SPA-based competition-binding assay in a 50 mM Tris pH 7.4 assay buffer containing 120 mM NaCl, 3 mM MnCl2, 40 µg/ml bacitracin, 2 µg/ml Chymostatin, 1 µg/ml Phosphoramidon and 4 µg/ml Leupeptin. […] The assay plate was subsequently under agitation incubated for 90 min at RT. The plate was centrifugated 10 minutes at 500xG and counted in a topcounter 5 minuttes pr well.
The total binding, which comprised less than 5 % of added radioligand, was defined using assay buffer whereas the non-specific binding was defined in the presence of 1 µM osanetant. The non-specific binding constituted app 5 % of the total binding.

human NK3 receptor [3] = target: T1, human NK3 receptor; assay: NK3 receptor efficacy and potency assay (FLIPR Calcium 4); assay type: cell-based; settings: read-out: Potency (cIC50/nM)
Description: Example 13 NK3 receptor efficacy and potency assay
BHK cells stably expressing the human NK3 receptor were seeded in 100 µl media in black walled clear-base 96-wells plates (Costar) aiming at a confluency of 95-100% at the day of assay. The assay was performed according to the FLIPR Calcium 4 Assay kit (Molecular Devices). At the day of the assay, the media was removed and the cells were washed once with the HBSS buffer (Hanks BSS buffer, pH 7,4 containing 20 mM Hepes) before 100 µl of a solution of the calcium assay reagent dissolved in the HBSS buffer containing 2,5 mM probinicid was added to the cells. The plates were incubated for 60 min at 34°C, 10% CO2 before use in the FLIPR for examination of fluorescence.
For efficacy and potency evaluation of compounds, these were diluted in HBSS buffer prior to test. For test of agonist activity, 25 µl of the diluted compound solution was added and the plate was analyzed for 5 minutes in the FLIPR. For test of antagonist activity, the plate was incubated for another 45 minutes before addition of 25 µl of the EC85 concentration ofNKB (app. 4 nM) as described above. The plates were subsequently analyzed for 5 minutes before the assay was terminated. The maximal increase in fluorescence over background following each ligand addition was determined.

human NK3 receptor [4] = target: T1, human NK3 receptor; assay: NK3 receptor binding assay (SPA-based competition binding with 125I-NKB); settings: read-out: KD of 125I-NKB; three independent saturation assays, duplicate determinations
Description: as §1, with “Example 12 NK3 receptor binding assay Membranepreparation:” for “Membranepreparation:”, “°C. Affinity assay description: The assay was performed as a SPA-based competition-binding assay in a 50 mM Tris pH 7.4 assay buffer containing 120 mM NaCl, 3 mM MnCl2, 40 µg/ml bacitracin, 2 µg/ml Chymostatin, 1 µg/ml Phosphoramidon and 4 µg/ml Leupeptin. […] The plate was centrifugated 10 minutes at 500xG and counted in a topcounter 5 minuttes pr well. […]” for “°C.”

Compound	fraction unbound at 5 h, 2 µM [1]	Ki (human NK3 receptor [2]) [nM]	IC50 (human NK3 receptor [3]) [nM]	Kd (human NK3 receptor [4]) [nM]
CCNn1c(C)c(C(=O)N[C@@H](CC)c2ccccc2)c2ccccc2c1=O [Example 2a, 2-Ethylamino-3-methyl-1-oxo-1,2-dihydro-isoquinoline-4-carboxylic acid ((S)-1-phenylpropyl)-amide]	0.162			
CCNn1c(C)c(C(=O)N[C@@H](CC)c2ccccc2)c2cccc(Cl)c2c1=O [Example 2h, 8-Chloro-2-ethylamino-3-methyl-1-oxo-1,2-dihydro-isoquinoline-4-carboxylic acid ((S)-1-phenyl-propyl)-amide]	0.062	31	36	
CCNn1c(C)c(C(=O)N[C@H](c2ccccc2)C2CC2)c2cccc(F)c2c1=O [Example 2i, 2-Ethylamino-8-fluoro-3-methyl-1-oxo-1,2-dihydro-isoquinoline-4-carboxylic acid ((S)-cyclopropyl-phenyl-methyl)-amide]	0.134	27		
CCCNn1c(C)c(C(=O)N[C@H](c2ccccc2)C2CC2)c2cccc(F)c2c1=O [Example 2k, 8-Fluoro-3-methyl-1-oxo-2-propylamino-1,2-dihydro-isoquinoline-4-corboxylic acid ((S)-cyclopropyl-phenyl-methyl)-amide]	0.124			
CCNn1c(C)c(C(=O)N[C@H](c2cccc(F)c2)C2CCC2)c2cccc(F)c2c1=O [Example 2s, 2-Ethylamino-8-fluoro-3-methyl-1-oxo-1,2-dihydro-isoquinoline-4-carboxylic acid [(S)-cyclobutyl-(3-fluoro-phenyl)-methyl]-amide]	0.06	4.7		

Further lines, results first:

fraction unbound at 5 h, 2 µM [1]	Ki (human NK3 receptor [2]) [nM]	IC50 (human NK3 receptor [3]) [nM]	Kd (human NK3 receptor [4]) [nM]	Compound
0.146	43			CCNn1c(C)c(C(=O)N[C@@H](CC)c2ccccc2)c2cccc(F)c2c1=O [Example 2t, 2-Ethylamino-8-fluoro-3-methyl-1-oxo-1,2-dihydro-isoquinoline-4-carboxylic acid ((S)-1-phenyl-propyl)-amide]
0.132	28			CCNn1c(C)c(C(=O)N[C@H](c2ccc(F)cc2)C2CC2)c2cccc(F)c2c1=O [Example 2w, 2-Ethylamino-8-fluoro-3-methyl-1-oxo-1,2-dihydro-isoquinoline-4-carboxylic acid [(S)-cyclopropyl-(4-fluoro-phenyl)-methyl]-amide]
0.046				CCCNn1c(C)c(C(=O)N[C@H](c2ccc(F)cc2)C2CCC2)c2cccc(F)c2c1=O [Example 8c]
0.089				Cc1c(C(=O)N[C@H](c2cccc(F)c2)C2CCC2)c2cccc(F)c2c(=O)n1NCCCF [Example 10a, 8-Fluoro-2-(3-fluoro-propylamino)-3-methyl-1-oxo-1,2-dihydro-isoqunoline-4-carboxylic acid [(S)-cyclobutyl-(3-fluoro-phenyl)-methyl]-amide]
0.006				CC[C@H](NC(=O)c1c(O)c(-c2ccccc2)nc2ccccc12)c1ccccc1 [Talnetant, talnetant, reference compound]
			0.7	CSCC[C@H](NC(=O)[C@H](CC(C)C)NC(=O)CNC(=O)[C@@H](NC(=O)[C@H](Cc1ccccc1)NC(=O)[C@H](Cc1ccccc1)NC(=O)[C@H](CC(=O)O)NC(=O)[C@H](Cc1cnc(I)[nH]1)NC(=O)[C@H](CCSC)NC(=O)[C@@H](N)CC(=O)O)C(C)C)C(N)=O [^125I-NKB] (H-DM[X1]DFFVGLM-NH2)
